Laboratory results from patent US20230203031A1, “COMPOUNDS USEFUL FOR INHIBITING CDK7” (Eli Lilly and Company, priority 2020, published 2023).

Experiments:
CDK7 = target: T1, CDK7 (Homo sapiens, UniProt P50613); test: DiscoverX KINOMEscan competition binding, CDK7; settings: 0.2 µM compound
T1 construct: purchased DiscoverX Corporation (KINOMEscan service)
Experimental: The purpose of the study is to generate an in vitro selectivity profile of the compounds of Example 8. To address selectivity, the compound of Example 8 is tested in a panel of 468 human kinases at DiscoverX Corporation using the KINOMEscan™ screening platform. KINOMEscan™ employs a novel and proprietary active site-directed competition binding assay to quantitatively measure interactions between test compounds and more than 450 human kinases and disease relevant mutant variants.
Compounds that bind the kinase active site and directly (sterically) or indirectly (allosterically) prevent kinase binding to an immobilized ligand, will reduce the amount of kinase captured on the solid support. […] Compound activity is monitored by measuring the amount of kinase captured in test versus control samples by using a qPCR method that detects the associated DNA label. Further information regarding the DiscoverX Corporation KINOMEscan™ screening platform can be found at http://www.discoverx.com.
Assays to monitor binding to a 468 kinase panel were conducted at DiscoverXⓇ Corporation (Fremont, CA). Example 8 is tested at 20 µM, 2 µM, and 0.2 µM final concentrations. Kinases are tagged with DNA for qPCR detection. […] The kinase concentration in the eluates is measured by qPCR. […]

HCC1806 = test: Cell proliferation assay (CELL TITER GLO), HCC1806; type: cell-based; settings: Homo sapiens, 144 h; HCC1806 breast cancer, six days after compound addition
Experimental: (§1) Cell lines are plated at the density 5000 cells per well in 100 µL per well growth medium into a white 96-well cell culture plate. See Table 1 for cell line and culture medium information. Plates are incubated at 37° C. and 5% CO2. The following day, a serial dilution of the test compound is prepared by diluting the compound 1:3 in DMSO for 10 points. The DMSO plate is 1000X the final concentration. In addition to the CDK7 inhibitor, a DMSO alone column is included as a maximum growth control and 10 µM staurosporine final column is included as a maximum growth inhibition control. A 10X dilution plate is then prepared by adding 2 µL per well from the 1000X DMSO plate to 198 µL per well of OMEM (Life Technologies, Carlsbad, CA, cat#31985-070). Cells are treated with indicated compound by adding 11 µL per well from the 10X OMEM plate to the cell plate containing 100 µL per well growth medium for a 1X final concentration. Plates are placed back into the incubator at 37° C. and 5% CO2. Six or seven days after compound addition, for HCC1806 or A2780 cells respectively, plates are removed from the incubator and allowed to equilibrate to RT. […] After 15 minute incubation on shaker, luminescence is read, 1 second per well, using a Wallac VICTOR2™. […]

[1] = tested on: HCC1806 xenograft tumor model; test: Xenograft tumor model; type: in vivo, female athymic nude mice; settings: QDx28, HCC1806 (KMT2C)
Experimental: The purpose of this assay is to measure reduction in tumor volume in response to the compound of Example 1. To evaluate in vivo efficacy of a test compound, multiple xenograft tumor models are utilized. Briefly, 2.5 × 10^6 tumor cells in a 1:1 MATRIGEL® mix (0.2 mL total volume) are injected subcutaneously into the female athymic nude mice (Envigo, Harlan Laboratories). After allowing tumors to reach a desired size of ~300-500 mm^3, animals are randomized into groups of 5 for efficacy studies. Test compound is administered via oral gavage (PO) at indicated doses and regimens. Tumor growth and body weight are monitored over time to evaluate efficacy and signs of toxicity.
Test compound is formulated in 1% hydroxyethylcellulose, 0.25% polysorbate 80, 0.05% antifoam in purified water (HEC) and administered by oral gavage (final volume 0.2 mL) at the doses indicated in Table 2. A test compound is formulated on a weekly basis and stored at 4° C. Vehicles are administered to the control groups according the schedules used above using a volume of 0.2 mL per dose. Mice are dosed via oral gavage and tumor samples are collected at termination and stored at -80° C.
Tumor size and body weight are recorded and analyzed bi-weekly.
Delta T/C% is calculated when the endpoint tumor volume in a treated group is at or above baseline tumor volume. The formula is 100×(T-T0)/(C-C0). […]

A2780 = test: Cell proliferation assay (CELL TITER GLO), A2780; type: cell-based; settings: Homo sapiens, 168 h; A2780 ovarian cancer, seven days after compound addition
Experimental: as §1

T1 sequence (P50613 whole entry): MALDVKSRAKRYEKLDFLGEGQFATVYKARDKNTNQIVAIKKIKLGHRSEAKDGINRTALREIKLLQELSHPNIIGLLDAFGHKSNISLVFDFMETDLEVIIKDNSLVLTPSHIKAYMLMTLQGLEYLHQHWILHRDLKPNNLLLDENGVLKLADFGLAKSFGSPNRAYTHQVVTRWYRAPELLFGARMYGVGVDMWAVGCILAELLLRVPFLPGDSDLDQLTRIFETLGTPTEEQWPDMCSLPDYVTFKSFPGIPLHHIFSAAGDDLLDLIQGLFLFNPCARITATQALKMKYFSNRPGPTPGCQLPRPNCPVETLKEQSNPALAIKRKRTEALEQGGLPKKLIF

Row | SMILES | remaining binding at 0.2 µM (CDK7; read-out: % control activity against CDK7) [%] | inhibition at 0.2 µM (CDK7; read-out: inhibition against CDK7) [%] | IC50 (HCC1806) [nM] | Avg. ΔT/C ([1]; 10 mg/kg PO) [%] | Avg. ΔT/C ([1]; 20 mg/kg PO) [%] | IC50 (A2780) [nM]
1 | C=CC(=O)N1CCO[C@H](CN2CCC(Nc3cc(C(F)(F)F)cn4c(C(C)C)cnc34)CC2)C1 [Example 8, 1-[(2R)-2-[[4-[[3-isopropyl-6-(trifluoromethyl)imidazo[1,2-a]pyridin-8-yl]amino]-1-piperidyl]methyl]morpholin-4-yl]prop-2-en-1-one] | ~4 | ~96 | – | – | – | –
2 | C=CC(=O)N1CCO[C@H](CN2CCC(Nc3cc(C(C)F)cn4c(C(C)C)cnc34)CC2)C1 (single isomer, unassigned) [Example 1] | – | – | 19.5 | 16.5 | -38.0 | 22.8
